Results published in patent publication US20260132129A1 (Genesis Therapeutics, Inc., priority 2022, published 2026).

Biological target: T1, PI3Kα H1047R (T47D cells) (Homo sapiens, UniProt P42336, H1047R)
T1 construct: endogenous in cells; host or cells: T47D cells
Experiment: PI3Kα cellular assay: pAKT HTRF in T47D cells after EGF stimulation
Format: cell-based
Settings: for IC50: T47D cells (PI3Kα H1047R), pAKT S473 HTRF, EGF stimulation; for T47D pAKT S473 HTRF IC50 (H1047R): T47D (H1047R) selectivity over SKBR3 (WT): selectivity of T47D (H1047R) over SKBR3 (WT) pAKT IC50
Method in brief: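 pAKT read by HTRF in lysates of EGF-stimulated (20 ng/mL, 10 min) T47D H1047R cells. Before stimulation, serum-starved cells (16 h) received compound for 1 h at 37 °C, dosed from 10,000 nM down to 0.5 nM in 3-fold steps.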

T1 sequence (P42336 whole entry H1047R): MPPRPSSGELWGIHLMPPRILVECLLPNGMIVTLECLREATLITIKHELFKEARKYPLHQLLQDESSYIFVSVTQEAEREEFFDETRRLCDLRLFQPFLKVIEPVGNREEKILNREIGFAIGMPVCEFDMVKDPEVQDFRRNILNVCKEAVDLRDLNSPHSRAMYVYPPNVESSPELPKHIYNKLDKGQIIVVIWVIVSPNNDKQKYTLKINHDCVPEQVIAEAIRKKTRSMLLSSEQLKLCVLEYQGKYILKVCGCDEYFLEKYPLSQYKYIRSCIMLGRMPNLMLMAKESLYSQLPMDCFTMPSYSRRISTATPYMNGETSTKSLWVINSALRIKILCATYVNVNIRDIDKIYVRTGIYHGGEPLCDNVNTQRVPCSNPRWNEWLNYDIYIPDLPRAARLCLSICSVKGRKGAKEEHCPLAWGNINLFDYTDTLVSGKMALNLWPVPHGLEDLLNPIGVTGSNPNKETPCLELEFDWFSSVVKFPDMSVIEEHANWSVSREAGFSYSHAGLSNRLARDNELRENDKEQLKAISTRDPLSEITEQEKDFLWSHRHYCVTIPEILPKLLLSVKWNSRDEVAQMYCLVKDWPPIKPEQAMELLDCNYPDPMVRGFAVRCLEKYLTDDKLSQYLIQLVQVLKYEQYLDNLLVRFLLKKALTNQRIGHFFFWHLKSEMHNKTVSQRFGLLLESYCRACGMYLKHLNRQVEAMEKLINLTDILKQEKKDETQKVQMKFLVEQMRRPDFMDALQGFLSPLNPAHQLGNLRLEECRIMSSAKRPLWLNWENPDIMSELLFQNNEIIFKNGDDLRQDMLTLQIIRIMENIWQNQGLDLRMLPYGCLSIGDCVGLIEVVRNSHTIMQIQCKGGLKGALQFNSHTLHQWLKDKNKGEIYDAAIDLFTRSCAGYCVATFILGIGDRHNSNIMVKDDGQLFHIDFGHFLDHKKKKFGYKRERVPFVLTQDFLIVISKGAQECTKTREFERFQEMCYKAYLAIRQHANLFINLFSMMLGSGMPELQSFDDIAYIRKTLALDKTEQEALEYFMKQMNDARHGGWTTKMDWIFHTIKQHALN
T1 sequence (P27986 whole entry partner): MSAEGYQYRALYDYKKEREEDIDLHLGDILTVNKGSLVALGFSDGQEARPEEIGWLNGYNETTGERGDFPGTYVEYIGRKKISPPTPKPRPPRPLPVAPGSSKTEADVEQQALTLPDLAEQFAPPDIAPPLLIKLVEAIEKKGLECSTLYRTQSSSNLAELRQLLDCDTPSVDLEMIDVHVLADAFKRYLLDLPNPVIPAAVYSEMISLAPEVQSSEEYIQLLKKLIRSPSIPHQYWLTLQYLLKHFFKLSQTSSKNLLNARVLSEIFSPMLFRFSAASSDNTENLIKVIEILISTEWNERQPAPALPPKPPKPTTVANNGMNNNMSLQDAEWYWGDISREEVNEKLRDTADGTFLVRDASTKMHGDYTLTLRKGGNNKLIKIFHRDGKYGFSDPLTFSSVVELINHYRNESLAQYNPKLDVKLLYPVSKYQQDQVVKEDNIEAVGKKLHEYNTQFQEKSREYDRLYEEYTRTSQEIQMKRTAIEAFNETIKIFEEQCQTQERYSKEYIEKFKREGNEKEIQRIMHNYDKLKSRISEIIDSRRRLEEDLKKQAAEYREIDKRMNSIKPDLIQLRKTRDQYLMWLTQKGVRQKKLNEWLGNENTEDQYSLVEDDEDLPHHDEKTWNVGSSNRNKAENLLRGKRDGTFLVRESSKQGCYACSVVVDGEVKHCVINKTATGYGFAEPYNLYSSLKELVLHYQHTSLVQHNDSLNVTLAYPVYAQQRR

SMILES | IC50 [nM] | T47D pAKT S473 HTRF IC50 (H1047R): T47D (H1047R) selectivity over SKBR3 (WT)
Cc1cc([C@H](C)N[C@H](C(=O)O)c2ccccc2)c2nc(N3CCOCC3)cc(=O)n2c1 [Compound 650] | > 2000 | C (C denotes ≤5-fold)
Cc1cc([C@H](C)N[C@@H](C(=O)O)c2ccccc2)c2nc(N3CCOCC3)cc(=O)n2c1 [Compound 651] | > 2000 | C (C denotes ≤5-fold)
Cc1cc([C@@H](C)Nc2ccccc2C(=O)O)c2nc(N3Cc4ccccc4[C@H]3C)cc(=O)n2c1 [Compound 655] | > 2000 | C (C denotes ≤5-fold)
Cc1cc(C(C)Nc2ccccc2C(=O)O)c2nc(-c3ccc(C(=O)N(C)C)cc3)cc(=O)n2c1 (stereo not shown) [Compound 657] | – | B (B denotes 20-fold≥value>5-fold)
Cc1cc([C@H](C)Nc2ccccc2C(=O)O)c2nc(-c3ccc(C(=O)N(C)C)cc3)cc(=O)n2c1 [Compound 659] | > 2000 | C (C denotes ≤5-fold)
CC(=O)c1ccc(-c2cc(=O)n3cc(C)cc([C@H](C)Nc4ccccc4C(=O)O)c3n2)cc1 [Compound 661] | > 2000 | C (C denotes ≤5-fold)
Cc1cc([C@H](C)Nc2ccccc2C(=O)O)c2nc(-c3cc(C)c(F)c(C)c3)cc(=O)n2c1 [Compound 663] | > 2000 | C (C denotes ≤5-fold)
Cc1cc(C(C)Nc2cccc3c2OCC(=O)N3)c2nc(N3CCOCC3)cc(=O)n2c1 (stereo not shown) [Compound 684] | > 2000 | C (C denotes ≤5-fold)
Cc1cc([C@@H](C)Nc2cccc3c2OCC(=O)N3)c2nc(N3CCOCC3)cc(=O)n2c1 [Compound 685] | > 2000 | C (C denotes ≤5-fold)
Cc1cc([C@H](C)Nc2cccc3c2OCC(=O)N3)c2nc(N3CCOCC3)cc(=O)n2c1 [Compound 686] | > 2000 | C (C denotes ≤5-fold)
Cc1cc([C@H](C)Nc2cccc3c2CCC(=O)N3)c2nc(N3CCOCC3)cc(=O)n2c1 [Compound 688] | > 2000 | C (C denotes ≤5-fold)
Cc1cc(C(C)Nc2ccccc2C(=O)O)c2nc(-c3ccc4c(c3)c(C)nn4C)cc(=O)n2c1 (stereo not shown) [Compound 695] | – | A (A denotes >20-fold)

The remaining lines, values ahead:

IC50 [nM] | T47D pAKT S473 HTRF IC50 (H1047R): T47D (H1047R) selectivity over SKBR3 (WT) | SMILES
500 to 2000 | B (B denotes 20-fold≥value>5-fold) | Cc1cc([C@H](C)Nc2ccccc2C(=O)O)c2nc(N3Cc4ccccc4[C@H]3C)cc(=O)n2c1 [Compound 654]
100 to 500 | A (A denotes >20-fold) | Cc1cc([C@@H](C)Nc2ccccc2C(=O)O)c2nc(-c3ccc(C(=O)N(C)C)cc3)cc(=O)n2c1 [Compound 658]
< 100 | A (A denotes >20-fold) | CC(=O)c1ccc(-c2cc(=O)n3cc(C)cc([C@@H](C)Nc4ccccc4C(=O)O)c3n2)cc1 [Compound 660]
100 to 500 | A (A denotes >20-fold) | Cc1cc([C@@H](C)Nc2ccccc2C(=O)O)c2nc(-c3cc(C)c(F)c(C)c3)cc(=O)n2c1 [Compound 662]
100 to 500 | A (A denotes >20-fold) | Cc1cc(C(C)Nc2ccccc2-c2ccnnc2)c2nc(N3Cc4ccccc4C3)cc(=O)n2c1 (stereo not shown) [Compound 665, 2-(isoindolin-2-yl)-7-methyl-9-(1-((2-(pyridazin-4-yl)phenyl)amino)ethyl)-4H-pyrido[1,2-a]pyrimidin-4-one]
< 100 | A (A denotes >20-fold) | Cc1cc(C(C)Nc2ccccc2C(=O)O)c2nc(-c3ccc(F)cc3)c(C)c(=O)n2c1 (stereo not shown) [Compound 691, 2-((1-(2-(4-fluorophenyl)-3,7-dimethyl-4-oxo-4H-pyrido[1,2-a]pyrimidin-9-yl)ethyl)amino)benzoic acid]
